Reference: the supplement of paper PMC12076712

What was measured:
Assay in all cases: pIC50, kinobeads binding competition
[1] = molecular target: UniProt P06493
Outline: (§1)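 Nine compound concentrations were tested, starting at 30 μM in 1:4 steps on live Jurkat cells (60 min, 37 °C, then lysis) or in 1:5 steps on Jurkat lysate or a 1:1:1:1 HEK293/K-562/HepG2/placenta lysate mix (60 min, 4 °C). Kinobeads-bound proteins were digested and quantified with TMT10 LC-MS/MS. pIC50 values are from logistic dose-response fits in the R drc package of fold changes relative to vehicle, from biological duplicates.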

[2] = molecular target: NEK6 (UniProt Q9HC98); conditions: cell material: Lysate mix
Sequence of NEK6 (Q9HC98 whole entry): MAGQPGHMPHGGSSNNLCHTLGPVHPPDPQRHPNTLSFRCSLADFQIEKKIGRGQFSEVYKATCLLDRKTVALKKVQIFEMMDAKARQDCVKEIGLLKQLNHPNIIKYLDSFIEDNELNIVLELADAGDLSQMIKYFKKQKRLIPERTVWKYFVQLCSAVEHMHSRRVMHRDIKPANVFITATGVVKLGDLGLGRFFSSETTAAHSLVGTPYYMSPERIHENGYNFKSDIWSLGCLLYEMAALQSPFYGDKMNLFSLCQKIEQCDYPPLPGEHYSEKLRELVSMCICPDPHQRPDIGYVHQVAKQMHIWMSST
Outline: as §1

[3] = molecular target: FGFR3 (UniProt P22607); conditions: cell material: Lysate mix
Sequence of FGFR3 (P22607 whole entry, looked up): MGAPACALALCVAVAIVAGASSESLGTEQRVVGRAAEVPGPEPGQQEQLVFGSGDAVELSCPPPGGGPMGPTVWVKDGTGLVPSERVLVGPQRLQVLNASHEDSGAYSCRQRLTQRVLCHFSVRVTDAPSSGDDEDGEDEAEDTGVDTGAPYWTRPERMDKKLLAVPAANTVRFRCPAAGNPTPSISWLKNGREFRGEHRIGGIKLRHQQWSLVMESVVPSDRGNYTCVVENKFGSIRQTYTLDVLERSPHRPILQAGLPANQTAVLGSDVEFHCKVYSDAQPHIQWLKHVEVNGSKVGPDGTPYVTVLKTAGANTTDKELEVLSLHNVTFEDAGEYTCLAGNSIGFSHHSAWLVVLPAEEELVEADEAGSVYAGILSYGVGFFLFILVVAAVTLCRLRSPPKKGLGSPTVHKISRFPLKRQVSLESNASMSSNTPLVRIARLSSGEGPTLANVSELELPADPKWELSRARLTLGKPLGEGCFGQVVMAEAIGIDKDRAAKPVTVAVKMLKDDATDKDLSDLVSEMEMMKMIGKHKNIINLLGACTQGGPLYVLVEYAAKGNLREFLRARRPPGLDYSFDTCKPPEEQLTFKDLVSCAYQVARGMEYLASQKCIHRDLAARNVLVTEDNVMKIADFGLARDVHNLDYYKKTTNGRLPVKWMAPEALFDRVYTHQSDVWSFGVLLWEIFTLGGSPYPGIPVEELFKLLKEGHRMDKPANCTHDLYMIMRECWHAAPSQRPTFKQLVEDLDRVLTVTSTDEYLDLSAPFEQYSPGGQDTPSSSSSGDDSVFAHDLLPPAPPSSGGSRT
Outline: as §1

[4] = molecular target: T1, TP53RK (UniProt Q96S44)
T1 sequence (whole entry): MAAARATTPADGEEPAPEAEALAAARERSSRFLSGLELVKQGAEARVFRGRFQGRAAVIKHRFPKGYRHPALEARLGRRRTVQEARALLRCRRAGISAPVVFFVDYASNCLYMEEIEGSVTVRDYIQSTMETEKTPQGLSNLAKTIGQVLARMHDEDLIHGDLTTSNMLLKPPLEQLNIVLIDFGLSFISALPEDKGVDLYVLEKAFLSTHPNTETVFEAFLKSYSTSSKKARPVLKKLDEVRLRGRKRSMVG
Outline: as §1

[5] = molecular target: LIMK1 (UniProt P53667)
Sequence of LIMK1 (P53667 whole entry, looked up): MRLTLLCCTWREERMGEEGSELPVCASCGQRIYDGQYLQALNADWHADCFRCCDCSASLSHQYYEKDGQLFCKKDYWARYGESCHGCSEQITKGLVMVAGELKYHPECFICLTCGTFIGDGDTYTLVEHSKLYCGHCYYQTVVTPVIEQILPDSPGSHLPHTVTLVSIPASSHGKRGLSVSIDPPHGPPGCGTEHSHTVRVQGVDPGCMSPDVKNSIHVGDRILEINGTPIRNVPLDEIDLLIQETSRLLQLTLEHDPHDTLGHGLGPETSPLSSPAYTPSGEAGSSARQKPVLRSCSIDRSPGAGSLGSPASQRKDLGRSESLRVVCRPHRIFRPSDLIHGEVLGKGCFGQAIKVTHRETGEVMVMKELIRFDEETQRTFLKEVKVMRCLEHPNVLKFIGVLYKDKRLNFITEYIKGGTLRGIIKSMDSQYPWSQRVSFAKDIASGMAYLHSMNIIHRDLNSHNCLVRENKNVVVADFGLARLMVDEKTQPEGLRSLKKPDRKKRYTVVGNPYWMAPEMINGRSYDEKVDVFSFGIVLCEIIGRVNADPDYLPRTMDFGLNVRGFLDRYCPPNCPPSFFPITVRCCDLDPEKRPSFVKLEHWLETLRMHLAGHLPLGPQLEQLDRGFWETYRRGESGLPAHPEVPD
Outline: as §1

[6] = molecular target: LYN (UniProt P07948)
Sequence of LYN (P07948 whole entry, looked up): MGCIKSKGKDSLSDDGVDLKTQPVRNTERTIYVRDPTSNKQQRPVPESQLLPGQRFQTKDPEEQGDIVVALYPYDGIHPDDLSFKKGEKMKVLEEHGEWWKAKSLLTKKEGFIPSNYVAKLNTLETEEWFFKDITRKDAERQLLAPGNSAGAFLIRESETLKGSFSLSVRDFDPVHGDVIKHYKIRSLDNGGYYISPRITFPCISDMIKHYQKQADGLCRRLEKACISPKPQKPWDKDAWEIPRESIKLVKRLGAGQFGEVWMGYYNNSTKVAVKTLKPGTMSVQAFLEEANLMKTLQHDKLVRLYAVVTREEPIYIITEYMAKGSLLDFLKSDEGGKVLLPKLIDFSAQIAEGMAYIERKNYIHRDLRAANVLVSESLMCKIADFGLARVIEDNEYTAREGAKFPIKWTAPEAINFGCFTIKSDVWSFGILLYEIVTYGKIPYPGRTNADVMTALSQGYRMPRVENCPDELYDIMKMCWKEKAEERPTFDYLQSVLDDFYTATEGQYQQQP
Outline: as §1

[7] = molecular target: UniProt Q9Y2I7
Sequence of UniProt Q9Y2I7 (Q9Y2I7 whole entry): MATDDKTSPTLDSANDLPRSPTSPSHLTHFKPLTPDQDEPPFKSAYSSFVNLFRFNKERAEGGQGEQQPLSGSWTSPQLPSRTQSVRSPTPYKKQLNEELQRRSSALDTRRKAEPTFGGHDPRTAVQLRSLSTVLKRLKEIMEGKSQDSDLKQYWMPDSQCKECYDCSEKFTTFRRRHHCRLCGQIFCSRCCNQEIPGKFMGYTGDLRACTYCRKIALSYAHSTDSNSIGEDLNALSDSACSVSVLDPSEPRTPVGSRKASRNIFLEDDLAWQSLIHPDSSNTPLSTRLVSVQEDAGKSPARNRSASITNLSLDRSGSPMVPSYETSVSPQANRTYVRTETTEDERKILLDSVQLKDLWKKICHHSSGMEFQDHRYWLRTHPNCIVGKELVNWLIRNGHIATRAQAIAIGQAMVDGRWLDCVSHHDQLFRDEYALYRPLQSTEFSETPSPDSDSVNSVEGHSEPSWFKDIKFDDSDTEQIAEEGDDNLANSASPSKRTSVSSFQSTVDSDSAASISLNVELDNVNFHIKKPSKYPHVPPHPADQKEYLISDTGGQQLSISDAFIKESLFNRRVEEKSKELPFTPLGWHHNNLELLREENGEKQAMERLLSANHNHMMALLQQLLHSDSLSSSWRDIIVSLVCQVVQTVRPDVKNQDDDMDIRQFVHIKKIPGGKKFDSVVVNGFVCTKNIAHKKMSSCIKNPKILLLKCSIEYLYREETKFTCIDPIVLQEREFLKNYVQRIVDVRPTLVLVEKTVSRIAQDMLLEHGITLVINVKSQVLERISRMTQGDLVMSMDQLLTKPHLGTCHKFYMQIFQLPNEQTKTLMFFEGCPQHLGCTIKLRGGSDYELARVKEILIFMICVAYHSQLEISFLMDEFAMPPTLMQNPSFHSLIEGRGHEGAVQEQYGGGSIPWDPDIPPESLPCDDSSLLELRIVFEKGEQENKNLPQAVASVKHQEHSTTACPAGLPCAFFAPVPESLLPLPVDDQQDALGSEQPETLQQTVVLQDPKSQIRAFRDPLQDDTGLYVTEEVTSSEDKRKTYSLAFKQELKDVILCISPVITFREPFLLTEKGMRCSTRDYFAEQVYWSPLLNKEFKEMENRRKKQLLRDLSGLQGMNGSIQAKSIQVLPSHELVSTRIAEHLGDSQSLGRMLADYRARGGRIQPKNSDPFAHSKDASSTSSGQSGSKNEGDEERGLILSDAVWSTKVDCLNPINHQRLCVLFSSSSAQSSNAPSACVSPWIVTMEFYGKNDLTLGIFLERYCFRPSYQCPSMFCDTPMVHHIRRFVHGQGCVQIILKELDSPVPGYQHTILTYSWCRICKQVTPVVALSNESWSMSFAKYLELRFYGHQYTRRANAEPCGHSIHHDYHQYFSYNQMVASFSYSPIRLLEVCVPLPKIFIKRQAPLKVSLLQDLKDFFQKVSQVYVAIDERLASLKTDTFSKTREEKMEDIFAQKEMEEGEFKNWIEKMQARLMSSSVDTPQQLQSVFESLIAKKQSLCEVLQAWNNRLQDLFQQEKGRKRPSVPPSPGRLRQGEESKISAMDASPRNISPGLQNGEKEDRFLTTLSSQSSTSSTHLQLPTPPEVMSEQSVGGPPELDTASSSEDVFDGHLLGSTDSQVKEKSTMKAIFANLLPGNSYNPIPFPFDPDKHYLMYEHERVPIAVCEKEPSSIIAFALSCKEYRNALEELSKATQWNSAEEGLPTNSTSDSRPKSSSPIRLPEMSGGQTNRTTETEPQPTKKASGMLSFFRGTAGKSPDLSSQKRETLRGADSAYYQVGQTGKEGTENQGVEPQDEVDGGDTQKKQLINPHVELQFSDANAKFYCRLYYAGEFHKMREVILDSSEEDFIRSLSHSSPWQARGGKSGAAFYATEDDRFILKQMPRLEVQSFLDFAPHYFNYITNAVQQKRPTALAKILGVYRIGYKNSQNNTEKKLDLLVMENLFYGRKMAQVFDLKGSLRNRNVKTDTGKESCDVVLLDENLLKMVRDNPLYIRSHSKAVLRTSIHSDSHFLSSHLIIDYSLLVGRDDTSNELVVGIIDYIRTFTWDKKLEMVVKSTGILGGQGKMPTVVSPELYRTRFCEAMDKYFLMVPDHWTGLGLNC
Outline: as §1

[8] = molecular target: T2, UniProt Q13043
T2 sequence (whole entry): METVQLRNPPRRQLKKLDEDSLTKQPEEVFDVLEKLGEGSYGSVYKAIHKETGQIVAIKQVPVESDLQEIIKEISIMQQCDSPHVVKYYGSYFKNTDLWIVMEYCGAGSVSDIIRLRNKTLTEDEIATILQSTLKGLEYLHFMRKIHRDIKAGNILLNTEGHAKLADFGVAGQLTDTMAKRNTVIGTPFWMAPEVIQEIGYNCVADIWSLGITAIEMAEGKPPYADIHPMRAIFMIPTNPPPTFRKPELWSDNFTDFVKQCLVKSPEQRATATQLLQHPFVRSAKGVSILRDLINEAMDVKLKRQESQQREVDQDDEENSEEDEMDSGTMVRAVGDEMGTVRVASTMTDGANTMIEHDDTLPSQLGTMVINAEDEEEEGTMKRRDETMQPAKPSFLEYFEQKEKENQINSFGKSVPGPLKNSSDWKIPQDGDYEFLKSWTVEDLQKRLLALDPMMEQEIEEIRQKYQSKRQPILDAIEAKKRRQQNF
Outline: as §1

[9] = molecular target: LCK (UniProt P06239)
Sequence of LCK (P06239 whole entry, looked up): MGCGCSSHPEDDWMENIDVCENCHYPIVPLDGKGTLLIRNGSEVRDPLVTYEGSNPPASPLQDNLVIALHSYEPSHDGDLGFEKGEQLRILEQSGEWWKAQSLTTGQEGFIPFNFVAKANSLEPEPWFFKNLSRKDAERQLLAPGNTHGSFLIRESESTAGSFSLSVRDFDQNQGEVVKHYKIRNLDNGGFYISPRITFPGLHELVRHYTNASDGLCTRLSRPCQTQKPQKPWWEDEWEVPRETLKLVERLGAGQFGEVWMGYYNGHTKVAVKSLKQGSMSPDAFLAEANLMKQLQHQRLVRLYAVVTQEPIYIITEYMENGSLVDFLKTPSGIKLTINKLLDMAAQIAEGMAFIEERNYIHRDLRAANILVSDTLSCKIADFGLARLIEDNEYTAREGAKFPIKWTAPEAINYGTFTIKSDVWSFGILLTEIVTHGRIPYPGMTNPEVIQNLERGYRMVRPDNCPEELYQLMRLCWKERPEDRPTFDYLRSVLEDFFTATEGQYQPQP
Outline: as §1

[10] = molecular target: T3, BRSK2 (UniProt Q8IWQ3)
T3 sequence (whole entry): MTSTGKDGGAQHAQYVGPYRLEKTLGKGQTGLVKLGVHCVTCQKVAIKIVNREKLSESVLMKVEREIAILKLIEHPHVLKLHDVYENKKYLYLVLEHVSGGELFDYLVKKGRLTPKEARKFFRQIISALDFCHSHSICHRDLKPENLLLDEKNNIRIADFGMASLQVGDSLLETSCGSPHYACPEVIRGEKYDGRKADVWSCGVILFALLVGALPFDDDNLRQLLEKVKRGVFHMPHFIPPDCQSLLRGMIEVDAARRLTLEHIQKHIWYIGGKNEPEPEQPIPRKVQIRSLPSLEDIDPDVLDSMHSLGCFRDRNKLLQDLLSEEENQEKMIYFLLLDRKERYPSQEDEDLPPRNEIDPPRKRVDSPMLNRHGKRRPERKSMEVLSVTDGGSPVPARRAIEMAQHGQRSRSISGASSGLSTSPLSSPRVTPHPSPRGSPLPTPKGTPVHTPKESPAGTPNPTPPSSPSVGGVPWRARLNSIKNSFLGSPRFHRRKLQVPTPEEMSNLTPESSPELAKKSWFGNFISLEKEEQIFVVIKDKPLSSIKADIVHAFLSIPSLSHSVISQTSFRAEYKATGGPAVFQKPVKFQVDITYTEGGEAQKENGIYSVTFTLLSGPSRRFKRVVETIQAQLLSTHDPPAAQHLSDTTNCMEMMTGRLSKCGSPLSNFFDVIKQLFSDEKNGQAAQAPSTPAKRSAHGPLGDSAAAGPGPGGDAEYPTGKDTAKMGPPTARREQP
Outline: as §1

[11] = molecular target: T4, UniProt Q15831
T4 sequence (whole entry): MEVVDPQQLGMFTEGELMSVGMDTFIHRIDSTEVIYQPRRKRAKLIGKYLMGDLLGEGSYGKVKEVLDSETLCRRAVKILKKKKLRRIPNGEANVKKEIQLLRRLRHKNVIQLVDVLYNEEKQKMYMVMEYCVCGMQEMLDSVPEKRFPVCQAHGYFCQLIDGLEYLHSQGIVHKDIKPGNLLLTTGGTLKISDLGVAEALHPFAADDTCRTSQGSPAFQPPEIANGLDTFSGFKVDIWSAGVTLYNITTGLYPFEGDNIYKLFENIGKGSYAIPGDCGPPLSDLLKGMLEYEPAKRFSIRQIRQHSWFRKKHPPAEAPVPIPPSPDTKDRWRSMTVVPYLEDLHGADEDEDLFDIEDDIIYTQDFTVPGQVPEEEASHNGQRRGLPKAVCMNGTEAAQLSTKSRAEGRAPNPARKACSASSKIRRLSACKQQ
Outline: as §1

SMILES | pIC50 ([1]; cell material: Jurkat cells) | pIC50 ([1]; cell material: Jurkat lysate) | pIC50 ([1]; cell material: Lysate mix) | pIC50 [2] | pIC50 [3] | pIC50 ([4]; cell material: Jurkat cells) | pIC50 ([4]; cell material: Jurkat lysate) | pIC50 ([4]; cell material: Lysate mix) | pIC50 ([5]; cell material: Jurkat cells) | pIC50 ([5]; cell material: Jurkat lysate) | pIC50 ([5]; cell material: Lysate mix) | pIC50 ([6]; cell material: Jurkat lysate) | pIC50 ([6]; cell material: Lysate mix) | pIC50 ([7]; cell material: Jurkat cells) | pIC50 ([7]; cell material: Jurkat lysate) | pIC50 ([7]; cell material: Lysate mix) | pIC50 ([8]; cell material: Jurkat cells) | pIC50 ([8]; cell material: Jurkat lysate) | pIC50 ([8]; cell material: Lysate mix) | pIC50 ([9]; cell material: Jurkat cells) | pIC50 ([9]; cell material: Jurkat lysate) | pIC50 ([9]; cell material: Lysate mix) | pIC50 ([10]; cell material: Jurkat cells) | pIC50 ([10]; cell material: Jurkat lysate) | pIC50 ([10]; cell material: Lysate mix) | pIC50 ([11]; cell material: Jurkat lysate) | pIC50 ([11]; cell material: Lysate mix)
C#CCNC(=O)c1cc(Nc2cc(C3CC3)[nH]n2)nc(N2CCN(Cc3ccc(S(=O)(=O)F)cc3)CC2)n1 | 6.32 | 5.37 | 5.7 | < 4.52 | < 4.52 | < 4.52 | < 4.52 | < 4.52 | 6.96 | 5.99 | 6.32 | 5.41 | 6.03 | 5.27 | < 4.52 | < 4.52 | 6.35 | 5.89 | 6.8 | 6.47 | 5.64 | 6.07 | 6.54 | < 4.52 | 4.84 | 5.81 | 6.42
C#CCNC(=O)c1cc(Nc2cc(C)[nH]n2)nc(N2CCN(Cc3ccc(S(=O)(=O)F)cc3)CC2)n1 |  |  | < 4.52 | < 4.52 | < 4.52 |  |  | < 4.52 |  |  | 5.62 |  | 5.54 |  |  | < 4.52 |  |  | 5.98 |  |  | 5.66 |  |  | < 4.52 |  | 4.78
Cc1cc(Nc2cc(C(=O)NCCNC(=O)OC3CC/C=C/CCC3)nc(N3CCN(Cc4ccc(S(=O)(=O)F)cc4)CC3)n2)n[nH]1 (stereo not given) |  |  | < 4.52 | < 4.52 | < 4.52 |  |  | < 4.52 |  |  | < 4.52 |  | < 4.52 |  |  | < 4.52 |  |  | 4.74 |  |  | < 4.52 |  |  | < 4.52 |  | < 4.52
O=C(NCCNC(=O)c1cc(Nc2cc(C3CC3)[nH]n2)nc(N2CCN(Cc3ccc(S(=O)(=O)F)cc3)CC2)n1)OC1CC/C=C/CCC1 (stereo not given) | 5.11 | < 4.52 | < 4.52 | < 4.52 | < 4.52 | < 4.52 | < 4.52 | < 4.52 | 6.66 |  |  | < 4.52 | < 4.52 | < 4.52 | < 4.52 | < 4.52 | 5.98 | 4.72 | 4.99 | 5.67 | < 4.52 |  | 5.93 | < 4.52 | < 4.52 | < 4.52 | < 4.52
CCNC(=O)c1cc(Nc2cc(C)[nH]n2)nc(N2CCN(Cc3ccc(S(=O)(=O)F)cc3)CC2)n1 |  |  | < 4.52 | < 4.52 | < 4.52 |  |  | < 4.52 |  |  | 5.74 |  | 5.98 |  |  | < 4.52 |  |  | 5.8 |  |  | 5.72 |  |  | < 4.52 |  | 4.61
CCNC(=O)c1cc(Nc2cc(C3CC3)[nH]n2)nc(N2CCN(Cc3ccc(S(=O)(=O)F)cc3)CC2)n1 |  |  | 5.5 | < 4.52 | 5.04 |  |  | < 4.52 |  |  | 6.06 |  | 5.92 |  |  | < 4.52 |  |  | 6.06 |  |  | 5.89 |  |  | < 4.52 |  | 5.4
